Assay results from ChEMBL document CHEMBL5727757, “Methods, compositions, and uses of novel Fyn kinase inhibitors” (2020).

These compounds were tested against Tyrosine-protein kinase Fyn (Homo sapiens, UniProt P06241) (assay: ADP-Glo Kinase Assay: The assay procedure determines the IC50 of each potential FYN kinase inhibitor by measuring the enzyme catalyzed ATP-dependent phosphorylation of the FYN substrate peptide. The ADP-Glo™ Kinase Assay is specifically designed to quantify kinase activity by measuring the ADP produced in the reaction The reaction buffer comprises 40 mM Tris.HCl (pH 7.5), 20 mM MgCl2, 0.1 mg/ml BSA and 5 microM DTT. Individual compounds within the chemical library were dissolved in DMSO at known concentrations. Briefly, 2.5 microliters of reaction buffer containing 3 picograms of FYN kinase and serial dilutions of each potential FYN kinase inhibitor (9 3-fold dilutions of a 10 micromolar top sample) are placed into each well of a 384 well microtiter plate and incubated at room temperature for 30 minutes. An additional 2.5 microliters of reaction buffer containing 100 picograms of the FYN substrate and 12.5 picomoles of ATP are then added to each well and the reaction carried out for 90 minutes at room temperature.).
Sequence of Tyrosine-protein kinase Fyn (P06241 whole entry): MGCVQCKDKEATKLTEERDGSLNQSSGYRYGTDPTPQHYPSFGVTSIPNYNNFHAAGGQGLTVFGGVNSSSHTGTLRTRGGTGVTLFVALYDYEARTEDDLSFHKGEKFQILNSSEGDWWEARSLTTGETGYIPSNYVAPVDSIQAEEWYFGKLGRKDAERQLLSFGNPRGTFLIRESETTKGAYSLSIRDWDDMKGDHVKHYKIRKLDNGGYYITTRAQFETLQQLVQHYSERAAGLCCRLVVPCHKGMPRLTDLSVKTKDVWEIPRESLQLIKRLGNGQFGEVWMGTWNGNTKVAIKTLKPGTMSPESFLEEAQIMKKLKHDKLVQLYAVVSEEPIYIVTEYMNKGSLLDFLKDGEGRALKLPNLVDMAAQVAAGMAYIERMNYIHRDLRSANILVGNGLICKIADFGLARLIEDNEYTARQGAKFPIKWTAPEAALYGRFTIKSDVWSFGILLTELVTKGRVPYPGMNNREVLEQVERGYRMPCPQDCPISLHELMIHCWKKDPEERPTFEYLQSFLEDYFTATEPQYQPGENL

IC50 [nM]	Compound
330	COc1cc(-c2nn([C@H]3CC[C@H](N4CCN(C)CC4)CC3)c3ncnc(N)c23)ccc1NC(=O)c1cc2ccccc2n1C
6.69	COc1cc2ncnc3c2cc1OCCCCCN(C(=O)OCc1ccccc1)Cc1ccc2c(c1N3)OCO2
8	COc1ccc2c(c1)-c1nc(Nc3ccc(CCCN4CCCC4)c(OC)c3)ncc1CC2(C)C
8	COc1ccc2c(c1)-c1nc(Nc3cc(C)c(OCCN(C)C)c(C)c3)ncc1CC2
